The structures appear in SMILES notation.

The subject of one assay is migraine headaches. Description: Case history: migraine headaches. Format: in vivo, human. The following applies: prescription, same subject. The text has this:
A person experienced stress-induced episodes of migraine headaches five to six times/year, each preceded by a “trigger signal” of slight dizziness or light-headedness. […] The lotion of Example 1 was supplied by the subject. […] No migraine episodes have occurred in the past eight months.

In the next assay the test system is shingles. Description: Case history: shingles. The format is in vivo, human. The following applies: prescription taken, within 1 week. The text has this:
A person was diagnosed with shingles on the lower jaw and on the scalp. […] The subject was given the lotion of Example 1 with instructions to pre-treat the area with a menthol cream five minutes before applying the treatment cream. Twice daily application to the border of the shingles lesions along the axis of red streaks prevented further expansion of the […] lesions. In areas of blisters that had not ruptured, application of the treatment cream caused the blisters to recede and not rupture. […] Episodes of recurring post-herpetic neuralgia were treated successfully over the next six weeks with the cream giving reduction of redness, itching and pain.

Regarding `CNS(=O)(=O)Cc1ccc2[nH]cc(CCN(C)C)c2c1` [Sumatriptan], the migraine pain relief entry with migraine headaches is listed as “slow to relieve the pain”.

For `Nc1nc2c(ncn2COCCO)c(=O)[nH]1` [acyclovir], the “relief from pain or itching” value with shingles is given as “no relief from pain or itching”.

These data come from patent US20190343907A1, “Synergistic Compositions and Methods of Achieving Homeostasis in Mammalian Systems” (priority 2017, published 2019).
